According to patent US9237747B2, “Herbicidal compositions comprising 4-amino-3-chloro-5-fluoro-6-(4-chloro-2-fluoro-3-methoxyphenyl) pyridine-2-carboxylic acid or a derivative thereof and insecticides” (priority 2013, dated 2016):
Read-outs that look alike come from different tables or passages of the source.

Experiments:
DIGSA = type: in vivo, Digitaria sanguinalis
Description: (§1) Seeds or nutlets of the desired test plant species were planted in a soil matrix prepared by mixing a loam or sandy loam soil (e.g., 28.6 percent silt, 18.8 percent clay, and 52.6 percent sand, with a pH of about 5.8 and an organic matter content of about 1.8 percent) and calcareous grit in an 80 to 20 ratio. The soil matrix was contained in plastic pots with a volume of 1 quart and a surface area of 83.6 square centimeters (cm^2). […] The plants were grown for 8-22 days in a greenhouse with an approximate 14 hour (h) photoperiod which was maintained at about 29° C. during the day and 26° C. during the night. Nutrients (Peters Excel® 15-5-15 5-Ca 2-Mg and iron chelate) were applied in the irrigation solution as needed and water was added on a regular basis. Supplemental lighting was provided with overhead metal halide 1000-Watt lamps as necessary. The plants were employed for testing when they reached the first through fourth true leaf stage.
(§2) Treatments consisted of the acid or esters of 4-amino-3-chloro-6-(4-chloro-2-fluoro-3-methoxyphenyl)-5-fluoropyridine-2-carboxylic acid (Compound A), each formulated as an SC (suspension concentrate), and various insecticidal components alone and in combination. Forms of compound A were applied on an acid equivalent basis.
(§3) For treatments comprised of formulated compounds, measured amounts of compounds were placed individually in 25 mL glass vials and diluted in a volume of 1.25% volume per volume (v/v) Agri-Dex® crop oil concentrate to obtain 12× stock solutions. […] Application solutions were prepared by adding an appropriate amount of each stock solution (e.g., 1 mL) and diluted to the appropriate final concentrations with the addition of […] of an aqueous mixture of 1.25% (v/v) crop oil concentrate so that the final spray solutions contained 1.25+/−0.05% (v/v) crop oil concentrate.
(§4) As required, additional water and/or 97:3 v/v acetone/DMSO was added to individual application solutions so that the final acetone and DMSO concentrations of the application solutions being compared were 8.1% and 0.25%, respectively.
(§5) All stock solutions and applications solutions were visually inspected for compound compatibility prior to application. Spray solutions were applied to the plant material with an overhead Mandel track sprayer equipped with 8002E nozzles calibrated to deliver 187 L/ha over an application area of 0.503 square meters (m^2) at a spray height of 18 to 20 inches (46 to 50 cm) above average plant canopy height. Control plants were sprayed in the same manner with the solvent blank.
(§6) The treated plants and control plants were placed in a greenhouse as described above and watered by sub-irrigation to prevent wash-off of the test compounds. After approximately 3 weeks, the condition of the test plants as compared to that of the untreated plants was determined visually and scored on a scale of 0 to 100 percent where 0 corresponds to no injury or growth inhibition and 100 corresponds to complete kill.
(§7) Colby's equation was used to determine the herbicidal effects expected from the mixtures (Colby, S. R. Calculation of the synergistic and antagonistic response of herbicide combinations. Weeds 1967, 15, 20-22.).
(§8) The following equation was used to calculate the expected activity of mixtures containing two active ingredients, A and B: Expected=A+B−(A×B/100)

ECHCG = type: in vivo, Echinochloa crus-galli
Description: as §1, §2, §3, §4, §5, §6, §7, §8

IPOHE = type: in vivo, Ipomoea hederacea
Description: as §1, §2, §3, §4, §5, §6, §7, §8

LEFCH = assay: whole plant or invertebrate; type: in vivo, Leptochloa chinensis
Description: as §1, §2, §3, §4, §5, §6, §7, §8

BRAPP = assay: Postemergence foliar-applied weed control, direct-seeded rice (greenhouse); type: in vivo, Brachiaria platyphylla
Excerpt: (§9) Seeds or nutlets of the desired test plant species were planted in a soil matrix prepared by mixing a loam or sandy loam soil (e.g., 28.6 percent silt, 18.8 percent clay, and 52.6 percent sand, with a pH of about 5.8 and an organic matter content of about 1.8 percent) and calcareous grit in an 80 to 20 ratio. The soil matrix was contained in plastic pots with a volume of 1 quart and a surface area of 83.6 square centimeters (cm^2). When required to ensure good germination and healthy plants, a fungicide treatment and/or other chemical or physical treatment was applied. The plants were grown for 8-22 days in a greenhouse with an approximate 14 hour (h) photoperiod which was maintained at about 29° C. during the day and 26° C. during the night. Nutrients (Peters Excel® 15-5-15 5-Ca 2-Mg and iron chelate) were applied in the irrigation solution as needed and water was added on a regular basis. Supplemental lighting was provided with overhead metal halide 1000-Watt lamps as necessary. The plants were employed for testing when they reached the first through fourth true leaf stage.
as §2
(§10) Treatment requirements were calculated based upon the rates being tested, the concentration of active ingredient or acid equivalent in the formulation, and a 12 milliliter (mL) application volume at a rate of 187 liters per hectare (L/ha).
as §3, §4, §5, §6, §7, §8

CYPIR = type: in vivo, Cyperus iria
Excerpt: as §9, §2, §10, §3, §4, §5, §6, §7, §8

CYPES = type: in vivo, Cyperus esculentus
Description: as §1, §2, §3, §4, §5, §6, §7, §8

CC1(C)C(C=C(Cl)Cl)C1C(=O)OC(C#N)c1cccc(Oc2ccccc2)c1 (racemic) [Cypermethrin, (RS)-α-cyano-3-phenoxybenzyl(1RS)-cis-trans-3-(2,2-dichlorovinyl)-2,2-dimethylcyclopropanecarboxylate, reference compound]
Visual Weed Control (%) - 21 DAA DIGSA Obs (DIGSA; 15 g ai/ha alone): 0%
Visual Weed Control (%) - 21 DAA DIGSA Obs (DIGSA; 30 g ai/ha alone): 0%
Visual Weed Control (%) - 21 DAA DIGSA Obs (DIGSA; 60 g ai/ha alone): 0%
Visual Weed Control (%) - 22 DAA ECHCG Obs (ECHCG; 7.5 g ai/ha alone): 0%
Visual Weed Control (%) - 22 DAA ECHCG Obs (ECHCG; 22.5 g ai/ha alone): 0%
Visual Weed Control (%) - 22 DAA ECHCG Obs (ECHCG; 60 g ai/ha alone): 0%
Visual Weed Control (%) - 22 DAA IPOHE Obs (IPOHE; 7.5 g ai/ha alone): 0%
Visual Weed Control (%) - 22 DAA IPOHE Obs (IPOHE; 22.5 g ai/ha alone): 0%
Visual Weed Control (%) - 22 DAA IPOHE Obs (IPOHE; 60 g ai/ha alone): 0%
pest or weed control at […] (LEFCH; Dinebra chinensis, post-emergence, 528 h, 7.5 g ai/ha alone, read-out: Visual Weed Control (%) - 22 DAA LEFCH Obs): 0%
pest or weed control at 22.5 g/ha (LEFCH; Dinebra chinensis, post-emergence, 528 h, 22.5 g ai/ha alone, read-out: Visual Weed Control (%) - 22 DAA LEFCH Obs): 0%
pest or weed control at 60 g/ha (LEFCH; Dinebra chinensis, post-emergence, 528 h, 60 g ai/ha alone, read-out: Visual Weed Control (%) - 22 DAA LEFCH Obs): 0%

CC1(C)[C@H](C(=O)O[C@H](C#N)c2cccc(Oc3ccccc3)c2)[C@@H]1/C=C(\Cl)C(F)(F)F (racemic) [Lambda cyhalothrin]
Visual Weed Control (%) - 21 DAA ECHCG Obs (ECHCG; 21 DAA, 35 g ai/ha alone): 0%
Visual Weed Control (%) - 21 DAA IPOHE Obs (IPOHE; 21 DAA, 35 g ai/ha alone): 0%

COP(=O)(NC(C)=O)SC (stereo not drawn) [Acephate, O,S-dimethyl acetylphosphoramidothioate]
Visual Weed Control (%) - 21 DAA BRAPP Obs (BRAPP; 140 g ai/ha alone): 0%
Visual Weed Control (%) - 21 DAA BRAPP Obs (BRAPP; 280 g ai/ha alone): 0%
Visual Weed Control (%) - 21 DAA BRAPP Obs (BRAPP; 560 g ai/ha alone): 0%
Visual Weed Control (%) - 21 DAA CYPIR Obs (CYPIR; 140 g ai/ha alone): 0%
Visual Weed Control (%) - 21 DAA CYPIR Obs (CYPIR; 280 g ai/ha alone): 0%
Visual Weed Control (%) - 21 DAA CYPIR Obs (CYPIR; 560 g ai/ha alone): 0%
Visual Weed Control (%) - 21 DAA IPOHE Obs (IPOHE; 280 g ai/ha alone): 10%

CNC(=O)Oc1cccc2ccccc12 [Carbaryl, 1-naphthalenyl N-methylcarbamate]
Visual Weed Control (%) - 20 DAA BRAPP Obs (BRAPP; 3 g ai/ha alone): 0%
Visual Weed Control (%) - 20 DAA BRAPP Obs (BRAPP; 6 g ai/ha alone): 0%
Visual Weed Control (%) - 20 DAA BRAPP Obs (BRAPP; 12 g ai/ha alone): 0%
Visual Weed Control (%) - 20 DAA CYPES Obs (CYPES; 24 g ai/ha alone): 0%
Visual Weed Control (%) - 20 DAA CYPES Obs (CYPES; 48 g ai/ha alone): 0%
Visual Weed Control (%) - 20 DAA CYPES Obs (CYPES; 96 g ai/ha alone): 0%
Visual Weed Control (%) - 20 DAA CYPIR Obs (CYPIR; 3 g ai/ha alone): 0%
Visual Weed Control (%) - 20 DAA CYPIR Obs (CYPIR; 6 g ai/ha alone): 0%
Visual Weed Control (%) - 20 DAA CYPIR Obs (CYPIR; 12 g ai/ha alone): 0%
Visual Weed Control (%) - 20 DAA DIGSA Obs (DIGSA; 3 g ai/ha alone): 0%
Visual Weed Control (%) - 20 DAA DIGSA Obs (DIGSA; 6 g ai/ha alone): 0%
Visual Weed Control (%) - 20 DAA DIGSA Obs (DIGSA; 12 g ai/ha alone): 0%
Visual Weed Control (%) - 20 DAA DIGSA Obs (DIGSA; 24 g ai/ha alone): 0%
Visual Weed Control (%) - 20 DAA DIGSA Obs (DIGSA; 48 g ai/ha alone): 0%
Visual Weed Control (%) - 20 DAA DIGSA Obs (DIGSA; 96 g ai/ha alone): 0%
Visual Weed Control (%) - 20 DAA ECHCG Obs (ECHCG; 3 g ai/ha alone): 0%
Visual Weed Control (%) - 20 DAA ECHCG Obs (ECHCG; 6 g ai/ha alone): 0%
Visual Weed Control (%) - 20 DAA ECHCG Obs (ECHCG; 12 g ai/ha alone): 0%
Visual Weed Control (%) - 20 DAA IPOHE Obs (IPOHE; 6 g ai/ha alone): 0%
Visual Weed Control (%) - 20 DAA IPOHE Obs (IPOHE; 12 g ai/ha alone): 10%
Visual Weed Control (%) - 20 DAA LEFCH Obs (LEFCH; 3 g ai/ha alone): 0%
Visual Weed Control (%) - 20 DAA LEFCH Obs (LEFCH; 6 g ai/ha alone): 0%
Visual Weed Control (%) - 20 DAA LEFCH Obs (LEFCH; 12 g ai/ha alone): 0%

CNC(=O)Oc1cccc2c1OC(C)(C)C2 [Carbofuran, 2,3-dihydro-2,2-dimethylbenzofuran-7-yl methylcarbamate]
Visual Weed Control (%) - 20 DAA CYPES Obs (CYPES; 125 g ai/ha alone): 0%
Visual Weed Control (%) - 20 DAA CYPES Obs (CYPES; 250 g ai/ha alone): 0%
Visual Weed Control (%) - 21 DAA IPOHE Obs (IPOHE; 500 g ai/ha alone): 0%
Visual Weed Control (%) - 21 DAA LEFCH Obs (LEFCH; 500 g ai/ha alone): 0%
